Results from US9850283B2, “Macrocyclic inhibitors of the PD-1/PD-L1 and CD80(B7-1)/PD-L1 protein/protein interactions” (BRISTOL-MYERS SQUIBB COMPANY, priority 2013, dated 2017).
Read-outs that look alike come from different tables or passages of the source. Positions of bridges follow the written chain, without caps; N, C: chain ends. Non-standard residues stand in square brackets, D forms with d. Residues, ends and D or L forms follow the SMILES beside them. Phe(3,4,5-F3) = N[C@@H](Cc1cc(F)c(F)c(F)c1)C(=O)O; Phe(4-CF3) = N[C@@H](Cc1ccc(C(F)(F)F)cc1)C(=O)O; Phe(3,5-F2) = N[C@@H](Cc1cc(F)cc(F)c1)C(=O)O; Phe(4-CH2NH2) = NCc1ccc(C[C@H](N)C(=O)O)cc1; Phe(4-Cl) = N[C@@H](Cc1ccc(Cl)cc1)C(=O)O; Phe(4-NH2) = Nc1ccc(C[C@H](N)C(=O)O)cc1; Phe(2-Cl) = N[C@@H](Cc1ccccc1Cl)C(=O)O; Phe(3-Me) = Cc1cccc(C[C@H](N)C(=O)O)c1; Phe(4-Me) = Cc1ccc(C[C@H](N)C(=O)O)cc1; Phe(2-Me) = Cc1ccccc1C[C@H](N)C(=O)O; Bta = N[C@@H](Cc1csc2ccccc12)C(=O)O; NMeF = CN[C@@H](Cc1ccccc1)C(=O)O; NMeNle = CCCC[C@H](NC)C(=O)O; Sar = CNCC(=O)O

What was measured:
Human PD-L1/PD-1 = biological target: T1, Human PD-L1/PD-1 (Homo sapiens, UniProt Q9NZQ7); experiment: HTRF PD-1-Ig/PD-L1-His binding assay (human PD-L1)
T1 construct: made in house; host or cells: HEK293T
Method in brief: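 Ig- and His-fused extracellular PD-1/PD-L1 binding in BSA/Tween-20 dPBS. HTRF with Eu anti-Ig (1 nM final) and APC anti-His (20 nM final).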

[1] = biological target: T2, LK35.2-hPD-L1 cells / PE-labeled PD-1-Ig (Homo sapiens, UniProt Q9NZQ7); experiment: LK35.2-hPD-L1 cell binding high-content screening assay; format: cell-based; conditions: cell line of CBA not given (LK35.2-hPD-L1 or 293T-hPD-L1)
T2 construct: expressed in transfected cells; host or cells: LK35.2 mouse B cell line
Method in brief: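 Fluorescent PD-1-Ig binding to PD-L1-expressing LK35.2 cells, imaged after washing. Conditions: 1 nM PE-PD-1-Ig, 37 °C, 1 h, RPMI with 10% fetal calf serum.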

[2] = cluster symbol, read-out: HTRF IC50 cluster
[3] = cluster symbol, read-out: CBA IC50 cluster

T2 sequence (Q9NZQ7 19-290): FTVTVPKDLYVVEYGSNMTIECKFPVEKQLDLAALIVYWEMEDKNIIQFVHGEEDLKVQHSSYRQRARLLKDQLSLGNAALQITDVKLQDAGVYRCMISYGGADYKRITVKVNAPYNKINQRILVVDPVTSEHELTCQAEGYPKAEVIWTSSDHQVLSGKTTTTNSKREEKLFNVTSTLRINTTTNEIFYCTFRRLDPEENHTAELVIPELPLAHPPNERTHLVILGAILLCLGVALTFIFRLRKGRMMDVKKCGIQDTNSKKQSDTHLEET
T1 sequence (Q9NZQ7 with tags, fused parts or gaps): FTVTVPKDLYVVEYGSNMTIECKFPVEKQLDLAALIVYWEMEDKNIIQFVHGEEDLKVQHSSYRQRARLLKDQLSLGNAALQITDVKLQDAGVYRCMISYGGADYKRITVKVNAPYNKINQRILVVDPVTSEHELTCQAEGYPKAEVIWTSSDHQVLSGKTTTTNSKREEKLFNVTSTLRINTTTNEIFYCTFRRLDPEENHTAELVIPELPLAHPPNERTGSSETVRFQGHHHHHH

Compound | IC50 (Human PD-L1/PD-1; read-out: HTRF IC50 value) | IC50 ([1]; read-out: CBA IC50 value) | IC50 (Human PD-L1/PD-1; [2]) | IC50 [1, 3]
CCCC[C@H]1C(=O)N(C)CC(=O)N[C@@H](CC(=O)O)C(=O)N[C@@H](C(C)C)C(=O)N[C@@H](Cc2ccccc2Cl)C(=O)N[C@@H](Cc2ccc(O)cc2)C(=O)N(C)CC(=O)N[C@@H](Cc2c[nH]c3ccccc23)C(=O)N[C@@H](Cc2ccc(O)cc2)C(=O)N[C@@H](CC(C)C)C(=O)N[C@H](C(=O)NCC(N)=O)CSCC(=O)N[C@@H](Cc2ccccc2)C(=O)N(C)[C@@H](Cc2ccccc2)C(=O)N1C [Example 3132] ({CH2CO}-F[NMeF][NMeNle][Sar]DV[Phe(2-Cl)]Y[Sar]WYLCG-NH2; thioether N-13) | 2.23 µM | 3.78 µM | – | –
CCCC[C@H]1C(=O)N(C)CC(=O)N[C@@H](CC(=O)O)C(=O)N[C@@H](C(C)C)C(=O)N[C@@H](Cc2ccccc2C)C(=O)N[C@@H](Cc2ccc(O)cc2)C(=O)N(C)CC(=O)N[C@@H](Cc2c[nH]c3ccccc23)C(=O)N[C@@H](Cc2ccc(O)cc2)C(=O)N[C@@H](CC(C)C)C(=O)N[C@H](C(=O)NCC(N)=O)CSCC(=O)N[C@@H](Cc2ccccc2)C(=O)N(C)[C@@H](Cc2ccccc2)C(=O)N1C [Example 3133] ({CH2CO}-F[NMeF][NMeNle][Sar]DV[Phe(2-Me)]Y[Sar]WYLCG-NH2; thioether N-13) | – | – | > 0.0305 µM | > 0.0743 µM
CCCC[C@H]1C(=O)N(C)CC(=O)N[C@@H](CC(=O)O)C(=O)N[C@@H](C(C)C)C(=O)N[C@@H](Cc2ccc(C)cc2)C(=O)N[C@@H](Cc2ccc(O)cc2)C(=O)N(C)CC(=O)N[C@@H](Cc2c[nH]c3ccccc23)C(=O)N[C@@H](Cc2ccc(O)cc2)C(=O)N[C@@H](CC(C)C)C(=O)N[C@H](C(=O)NCC(N)=O)CSCC(=O)N[C@@H](Cc2ccccc2)C(=O)N(C)[C@@H](Cc2ccccc2)C(=O)N1C [Example 3135] ({CH2CO}-F[NMeF][NMeNle][Sar]DV[Phe(4-Me)]Y[Sar]WYLCG-NH2; thioether N-13) | – | – | > 0.0305 µM | > 0.0743 µM
CCCC[C@H]1C(=O)N(C)CC(=O)N[C@@H](CC(=O)O)C(=O)N[C@@H](C(C)C)C(=O)N(C)[C@@H](Cc2ccccc2)C(=O)N[C@@H](Cc2ccc(N)cc2)C(=O)N(C)CC(=O)N[C@@H](Cc2c[nH]c3ccccc23)C(=O)N[C@@H](Cc2ccc(O)cc2)C(=O)N[C@@H](CC(C)C)C(=O)N[C@H](C(=O)NCC(N)=O)CSCC(=O)N[C@@H](Cc2ccccc2)C(=O)N(C)[C@@H](Cc2ccccc2)C(=O)N1C [Example 3139] ({CH2CO}-F[NMeF][NMeNle][Sar]DV[NMeF][Phe(4-NH2)][Sar]WYLCG-NH2; thioether N-13) | – | – | 0.00676 to 0.0303 µM | 0.00478 to 0.0729 µM
CCCC[C@H]1C(=O)N(C)CC(=O)N[C@@H](CC(=O)O)C(=O)N[C@@H](C(C)C)C(=O)N(C)[C@@H](Cc2ccccc2)C(=O)N[C@@H](Cc2ccc(O)cc2)C(=O)N(C)CC(=O)N[C@@H](Cc2c[nH]c3ccccc23)C(=O)N[C@@H](Cc2ccc(N)cc2)C(=O)N[C@@H](CC(C)C)C(=O)N[C@H](C(=O)NCC(N)=O)CSCC(=O)N[C@@H](Cc2ccccc2)C(=O)N(C)[C@@H](Cc2ccccc2)C(=O)N1C [Example 3140] ({CH2CO}-F[NMeF][NMeNle][Sar]DV[NMeF]Y[Sar]W[Phe(4-NH2)]LCG-NH2; thioether N-13) | – | – | 0.00676 to 0.0303 µM | 0.00478 to 0.0729 µM
CC[C@H](C)[C@H]1C(=O)N(C)CC(=O)N[C@@H](CC(=O)O)C(=O)N[C@@H](C(C)C)C(=O)N(C)[C@@H](Cc2ccccc2)C(=O)N[C@@H](Cc2ccc(O)cc2)C(=O)N(C)CC(=O)N[C@@H](Cc2c[nH]c3ccccc23)C(=O)N[C@@H](Cc2ccc(O)cc2)C(=O)N[C@@H](CC(C)C)C(=O)N[C@H](C(=O)NCC(N)=O)CSCC(=O)N[C@@H](Cc2ccccc2)C(=O)N(C)[C@@H](Cc2ccccc2)C(=O)N1C [Example 3142] (HELM PEPTIDE1{[O=C(C[*:3])[*:2]].F.[meF].[meI].[Sar].D.V.[meF].Y.[Sar].W.Y.L.C.G.[am]}$PEPTIDE1,PEPTIDE1,1:R3-14:R3$$$V2.0) | – | – | 0.00676 to 0.0303 µM | 0.00478 to 0.0729 µM
CCCC[C@H]1C(=O)N(C)CC(=O)N[C@@H](CC(=O)O)C(=O)N[C@@H](C(C)C)C(=O)N(C)[C@@H](Cc2ccccc2)C(=O)N[C@@H](Cc2ccc(O)cc2)C(=O)N(C)CC(=O)N[C@@H](Cc2c[nH]c3ccccc23)C(=O)N[C@@H](Cc2ccc(O)cc2)C(=O)N[C@@H](CC(C)C)C(=O)N[C@H](C(=O)NCC(N)=O)CSCC(=O)N[C@@H](Cc2cc(F)c(F)c(F)c2)C(=O)N(C)[C@@H](Cc2ccccc2)C(=O)N1C [Example 3144] ({CH2CO}-[Phe(3,4,5-F3)][NMeF][NMeNle][Sar]DV[NMeF]Y[Sar]WYLCG-NH2; thioether N-13) | – | – | 0.00676 to 0.0303 µM | 0.000158 to 0.00471 µM
CCCC[C@H]1C(=O)N(C)CC(=O)N[C@@H](CC(=O)O)C(=O)N[C@@H](C(C)C)C(=O)N[C@@H](Cc2ccc(Cl)cc2)C(=O)N[C@@H](Cc2ccc(O)cc2)C(=O)N(C)CC(=O)N[C@@H](Cc2c[nH]c3ccccc23)C(=O)N[C@@H](Cc2ccc(O)cc2)C(=O)N[C@@H](CC(C)C)C(=O)N[C@H](C(=O)NCC(N)=O)CSCC(=O)N[C@@H](Cc2ccccc2)C(=O)N(C)[C@@H](Cc2ccccc2)C(=O)N1C [Example 3145] ({CH2CO}-F[NMeF][NMeNle][Sar]DV[Phe(4-Cl)]Y[Sar]WYLCG-NH2; thioether N-13) | – | – | > 0.0305 µM | > 0.0743 µM

Next, values leading:

IC50 (Human PD-L1/PD-1; read-out: HTRF IC50 value) | IC50 ([1]; read-out: CBA IC50 value) | IC50 (Human PD-L1/PD-1; [2]) | IC50 [1, 3] | Compound
– | – | > 0.0305 µM | > 0.0743 µM | CCCC[C@H]1C(=O)N(C)CC(=O)N[C@@H](CC(=O)O)C(=O)N[C@@H](C(C)C)C(=O)N[C@@H](Cc2cccc(C)c2)C(=O)N[C@@H](Cc2ccc(O)cc2)C(=O)N(C)CC(=O)N[C@@H](Cc2c[nH]c3ccccc23)C(=O)N[C@@H](Cc2ccc(O)cc2)C(=O)N[C@@H](CC(C)C)C(=O)N[C@H](C(=O)NCC(N)=O)CSCC(=O)N[C@@H](Cc2ccccc2)C(=O)N(C)[C@@H](Cc2ccccc2)C(=O)N1C [Example 3134] ({CH2CO}-F[NMeF][NMeNle][Sar]DV[Phe(3-Me)]Y[Sar]WYLCG-NH2; thioether N-13)
– | – | 0.00676 to 0.0303 µM | 0.00478 to 0.0729 µM | CC(C)C[C@@H]1NC(=O)[C@H](Cc2ccc(O)cc2)NC(=O)[C@H](Cc2c[nH]c3ccccc23)NC(=O)CN(C)C(=O)[C@H](Cc2ccc(O)cc2)NC(=O)[C@H](Cc2ccccc2)N(C)C(=O)[C@H](C(C)C)NC(=O)[C@H](CC(=O)O)NC(=O)CN(C)C(=O)[C@H](CC(C)C)N(C)C(=O)[C@H](Cc2ccccc2)N(C)C(=O)[C@H](Cc2ccccc2)NC(=O)CSC[C@@H](C(=O)NCC(N)=O)NC1=O [Example 3136] (HELM PEPTIDE1{[O=C(C[*:3])[*:2]].F.[meF].[meL].[Sar].D.V.[meF].Y.[Sar].W.Y.L.C.G.[am]}$PEPTIDE1,PEPTIDE1,1:R3-14:R3$$$V2.0)
– | – | > 0.0305 µM | > 0.0743 µM | CCCC[C@H]1C(=O)N(C)CC(=O)N[C@@H](CC(=O)O)C(=O)N[C@@H](C(C)C)C(=O)N(C)[C@@H](Cc2ccccc2)C(=O)N[C@@H](Cc2ccc(O)cc2)C(=O)N(C)CC(=O)N[C@@H](Cc2c[nH]c3ccccc23)C(=O)N[C@@H](Cc2ccc(C(F)(F)F)cc2)C(=O)N[C@@H](CC(C)C)C(=O)N[C@H](C(=O)NCC(N)=O)CSCC(=O)N[C@@H](Cc2ccccc2)C(=O)N(C)[C@@H](Cc2ccccc2)C(=O)N1C [Example 3138] ({CH2CO}-F[NMeF][NMeNle][Sar]DV[NMeF]Y[Sar]W[Phe(4-CF3)]LCG-NH2; thioether N-13)
– | – | 0.00676 to 0.0303 µM | 0.00478 to 0.0729 µM | CCCC[C@H]1C(=O)N(C)CC(=O)N[C@@H](CC(=O)O)C(=O)N[C@@H](C(C)C)C(=O)N(C)[C@@H](Cc2ccccc2)C(=O)N[C@@H](Cc2ccc(CN)cc2)C(=O)N(C)CC(=O)N[C@@H](Cc2csc3ccccc23)C(=O)N[C@@H](Cc2ccc(O)cc2)C(=O)N[C@@H](CC(C)C)C(=O)N[C@H](C(=O)NCC(N)=O)CSCC(=O)N[C@@H](Cc2ccccc2)C(=O)N(C)[C@@H](Cc2ccccc2)C(=O)N1C [Example 3141] ({CH2CO}-F[NMeF][NMeNle][Sar]DV[NMeF][Phe(4-CH2NH2)][Sar][Bta]YLCG-NH2; thioether N-13)
– | – | 0.00676 to 0.0303 µM | 0.000158 to 0.00471 µM | CCCC[C@H]1C(=O)N(C)CC(=O)N[C@@H](CC(=O)O)C(=O)N[C@@H](C(C)C)C(=O)N(C)[C@@H](Cc2ccccc2)C(=O)N[C@@H](Cc2ccc(O)cc2)C(=O)N(C)CC(=O)N[C@@H](Cc2c[nH]c3ccccc23)C(=O)N[C@@H](Cc2ccc(O)cc2)C(=O)N[C@@H](CC(C)C)C(=O)N[C@H](C(=O)NCC(N)=O)CSCC(=O)N[C@@H](Cc2cc(F)cc(F)c2)C(=O)N(C)[C@@H](Cc2ccccc2)C(=O)N1C [Example 3143] ({CH2CO}-[Phe(3,5-F2)][NMeF][NMeNle][Sar]DV[NMeF]Y[Sar]WYLCG-NH2; thioether N-13)
– | – | > 0.0305 µM | 0.00478 to 0.0729 µM | CCCC[C@H]1C(=O)N(C)CC(=O)N[C@@H](CC)C(=O)N[C@@H](C(C)C)C(=O)N(C)[C@@H](Cc2ccccc2)C(=O)N[C@@H](Cc2ccc(O)cc2)C(=O)N(C)CC(=O)N[C@@H](Cc2c[nH]c3ccccc23)C(=O)N[C@@H](Cc2ccc(O)cc2)C(=O)N[C@@H](CC(C)C)C(=O)N[C@H](C(=O)NCC(N)=O)CSCC(=O)N[C@@H](Cc2ccccc2)C(=O)N(C)[C@@H](Cc2ccccc2)C(=O)N1C [Example 3146] (HELM PEPTIDE1{[O=C(C[*:3])[*:2]].F.[meF].[CCCC[C@@H](C(=O)[*:2])N(C)[*:1]].[Sar].[Abu].V.[meF].Y.[Sar].W.Y.L.C.G.[am]}$PEPTIDE1,PEPTIDE1,1:R3-14:R3$$$V2.0)
